This is an account of results in patent publication EP0189629A1, “Method of treatment of viral diseases in plants utilizing ribavirin” (VIRATEK, INC., priority 1985, dated 1986).

A short description of one data set: Solubility. The class given is physicochemical. The settings on record: for solubility in other solvents: alcohol (5-15% by volume) and water, DMF (5-25%) and water, DMSO (5-25%) and water, DMSO alone. From the text: Another potential use of Ribavirin is to eliminate viruses or maintain plant tissues in a virus-free state during routine propagation techniques that are presently being developed. One example is the use of encapsulated somatic embryos to propagate somatic tissues to prevent sexual variation or the need for more extensive plant breeding. Ribavirin may be especially useful in maintaining virus-free plants by its application to somatic embryos. Certain plants can be propagated asexually precluding genetic changes in progeny which might otherwise occur by sexual propagation from seed. Treatment of somatic embryos with Ribavirin prior to encapsulation will preserve plant progeny in a virus--free state. The compound could also be used in combination with newly developed plant genetic engineering procedures where the Ribavirin could be incorporated into normal propagation procedures. […] The compounds are also soluble in solutions of alcohol (5-15% by volume) and water, dimethylformamide (DMF) (5-25%) and water, dimethyl sulfoxide (DMSO) (5-25%) and water and dimethyl sulfoxide alone.

The test system of data set [1] is TMV. The experiment in a line: TMV multiplication in inoculated unorganized callus cells. The class given is cell-based. The following applies: callus cells inoculated with TMV, single agent.
The subject of data set [2] is TMV. Briefly: TMV multiplication in leaf cells, treatment soon after inoculation. The following applies: treatment began soon after inoculation. Format: cell-based.
For data set [3], the system named is orchid strain of tobacco mosaic virus (TMV-0). The experiment in a line: Cymbidium orchid tissue culture, virus titers by electron micrography and serological test. The class given is cell-based. The settings on record: 30, 100, 300 and 1,000 ppm Ribavirin; 200 ppm DMSO in all treatments. The procedure: Ribavirin concentrations from 30 to 1,000 ppm have been included in tissue culture media in which orchids are being cloned, and used to drench and spray whole orchid plants in a controlled way. Virus titers were determined by transmission electron micrography and ELIZA serological tests. In order to enhance penetration of Ribavirin, 200 ppm of Dimethylsulfoxide - (DMSO) was included in all treatments including controls.

Another data set concerns Lilium. Briefly: Lily meristem culture, meristem formation and bulb growth. Format: cell-based.
Data set [4] has as its system TMV. Briefly: TMV-infected tobacco callus growth and shoot regeneration on medium containing chemical. The class given is cell-based.
Data set [5] relates to protocorms of healthy Cymbidium. The experiment in a line: Growth of healthy Cymbidium protocorms on medium containing Ribavirin. Format: cell-based. The procedure:
Meristems or protocorms of Cymbidium were cultured on liquid or solid (0.7% agar) KNUDSON C medium, as modified for orchids by MOREL.

Data set [6] concerns Odontoglossum ring spot virus (ORSV). Briefly: ORSV-infected Cymbidium meristem/protocorm culture, ELISA. The class given is cell-based. The procedure:
Odontoglossum ring spot virus (ORSV) - infected Cymbidium mother plants have been regenerated in the presence of Ribavirin. Meristems or protocorms of Cymbidium were cultured on liquid or solid (0.7% agar) KNUDSON C medium, as modified for orchids by MOREL.
(§1) Although the proportion of healthy plants obtained by this technique is usually high, it requires complex media and the rate of regrowth of meristematic explants is low. Menstems were cultured on MURASHIGE and SKOOG medium- supplanted with vitamin 85, and with growth substances. Other explants (shoots, fragment of shoots, stem--fragments) were grown on MURASHIGE and SKOOG medium without addition of growth substances. The presence of potato virus Y in plant material was controlled before and after in vitro culture, by biological indexing on tobacco test plants, or by serology (ELISA). Results thus obtained confirmed the elimination of potato virus Y from infected plants by meristem culture. […] Cymbidium protocorms infected with odontoglossum ring spot virus were placed for proliferation on liquid KNUDSON C medium containing 0, 10, 25 or 40 ppm of Ribavirin.
A general note: An ELISA detects its analyte on a solid surface through an enzyme-linked reagent.

For data set [7], the system named is lily symptomless virus (LSV) and tulip breaking virus (TBV). The experiment in a line: Lily meristem culture, virus testing by ELISA, immuno-diffusion drop test and electron microscopy. The settings on record: 40.0 uM Ribavirin. The class given is cell-based. The procedure:
Other experiments were performed with Lilium Lon- oifiorum "Arai" which has been described as difficult to obtain free of virus, and with Lilium"Enchantment", both containing lily symptomless virus (LSV) and tulip breaking virus (TBV). Meristems, induced on media with or without Ribavirin, were isolated and subsequently cultured on a medium without Ribavirin. […] Leaf samples of the plants were tested for the presence of LSV and TBV by means of ELISA, the immuno-diffusion drop test and electron microscopy.

The subject of a further data set is plant virus groups. Briefly: Spectrum of activity against plant virus groups and plant viral diseases.
A further data set deals with potato virus Y. Briefly: In vitro culture of meristems and other explants of potato virus Y-infected potato. Format: cell-based. The protocol: as §1

With `CC(=O)OC[C@H]1O[C@@H](n2cnc(C(N)=O)n2)[C@H](OC(C)=O)[C@@H]1OC(C)=O` [2,3,5--triacetyl], in the data set “Solubility”, the “solubility in other solvents” value is listed as “also soluble” and the solubility in water entry is given as “soluble in water”.
With `CCCC(=O)OC[C@H]1O[C@@H](n2cnc(C(N)=O)n2)[C@H](O)[C@@H]1O` [5'-butyryl], in the data set “Solubility”, the “solubility in other solvents” value is “also soluble” and the solubility in water entry is “soluble in water”.
Turning to `Nc1ncnc2c1ncn2[C@@H]1O[C@H](CO)[C@@H](O)[C@@H]1O` [Adenine Arabinoside], the “multiplication of TMV in unorganized callus cells” value with TMV [1] was “neither inhibited”. In addition, the “multiplication of TMV in leaf cells” value in the data set on TMV [2] is “effectively inhibited”.
Consider `NC(=O)c1ncn([C@@H]2O[C@H](CO)[C@@H](O)[C@H]2O)n1` [Ribavirin, 1-β-D-ribofuranosyl-1,2,4-triazole-3-carboxamide], for which the “virus status of new growth of Cymbidium tissue cultures” value in [3] is “developed virus-free new growth”. Moreover, the bulb growth entry in the data set on Lilium (400.0 uM) is reported as “severely reduced”. For the same compound, the “number of adventitiously formed meristems and average bulb weight” value in the data set on Lilium (concentration range 0.0-40.0 uM) is reported as “not significantly influenced”. For the same compound, the “TMV in newly developed tobacco callus or shoots” value in the data set on TMV [4] (callus from TMV-infected pith tissue grown on medium with Ribavirin) is listed as “still contained TMV”. For the same compound, the “tobacco callus growth and differentiation” value with TMV [4] (concentration twice that required to inhibit TMV multiplication in leaf disks) is “grew and differentiated”. In the data set with TMV [1], the “multiplication of TMV in unorganized callus cells” value is recorded as “neither inhibited”. Also, the “growth of healthy Cymbidium protocorms” value in [5] (50 ppm, after four weeks of culture) was “became necrotic”; in [5] (media containing 0, 10 or 25 ppm) it was “grew well”. Moreover, the “multiplication of ORSV in Cymbidium protocorms” value in data set [6] (10 ppm, liquid KNUDSON C medium, three monthly subcultures) is reported as “did not inhibit”. Further, the “virus concentration in Cymbidium protocorms” value in data set [6] (25 ppm, liquid KNUDSON C medium, monthly subcultures) is on record as “decreased progressively”. Moreover, the “ORSV detection by ELISA test” value in data set [6] (from the sixth subculture, regeneration in the presence of Ribavirin) is recorded as “no longer detectible”. Moreover, the “percentage of plants infected with LSV and/or TBV” value is on record as “the effect is less clear” in data set [7] (L. "Enchantment") and “reduced” in [7] (L. Lonaiflorum "Arai"). Moreover, in the data set with plant virus groups (crops and viruses listed in the 2nd table and the 3rd table), the “effectiveness against plant viral diseases” value is “effective”. In the data set on plant virus groups (potexviruses, potyviruses, closteroviruses, tymoviruses, carlaviruses, cucumoviruses, ilarviruses, tombusviruses, tomato spotted wilt virus, alfalfa mosaic virus), the “activity against plant virus groups” value is “active”. Besides, in the data set on plant virus groups (tobamovirus and bromovirus groups), the “sensitivity of plant virus groups to Ribavirin” value was “only slightly sensitive”. The “regeneration rate in meristem culture” value in the data set on potato virus Y (10, 25 and 50 ppm, meristems of potato virus Y-infected potato) was “enhanced the regeneration rate”. In addition, the “number of virus-free plants obtained after in vitro culture” value with potato virus Y (25 or 50 ppm, shoots, shoot pieces and stem-fragments, three to four weeks) is “significantly enhanced”. The “phytotoxicity in meristem culture” value in the data set with potato virus Y (virus-inhibiting concentrations, meristem culture of potato virus Y-infected potato) was “phytotoxicity at virus-inhibiting concentrations”. In addition, in the data set with TMV [2], the “multiplication of TMV in leaf cells” value is listed as “effectively inhibited”. Further, in the data set “Solubility”, the “solubility in other solvents” value was “also soluble”. The solubility in water entry in “Solubility” is “soluble in water”.
